# According to US20230355597A1, “COMPOUNDS, COMPOSITIONS, AND METHODS FOR THE TREATMENT AND PREVENTION OF AVIAN PATHOGENIC E. COLI (APEC)” (OHIO STATE INNOVATION FOUNDATION, priority 2018, published 2023):
# Marks after values point to notes of the source that are not given here.
# Experiments:
# [1] = test system: intracellular APEC O78, O2, and O1 in infected Caco-2, HD11, and THP1 cells; experiment: Intracellular survival assay (cidal SMs), summary over serotypes and cells; conditions: overall ranking
# [2] = test system: APEC O115; format: cell-based, avian pathogenic Escherichia coli (APEC); conditions: APEC O115, M63 media; MIC/MBC
# [3] = test system: intracellular APEC O78 in HD11 cells; experiment: Intracellular survival assay (cidal SMs); conditions: O78, HD11, 6 h treatment; superscript = multiple of MIC
# [4] = test system: intracellular APEC O78 in Caco-2 cells; experiment: Intracellular survival assay (cidal SMs); conditions: O78, Caco-2, 6 h treatment; superscript = multiple of MIC
# [5] = test system: intracellular APEC O2 in HD11 cells; experiment: Intracellular survival assay (cidal SMs); conditions: O2, HD11, 6 h treatment; superscript = multiple of MIC
# [6] = test system: APEC O78; format: cell-based, avian pathogenic Escherichia coli (APEC); conditions: APEC O78, M63 media; cell prints MIC/MBC
# [7] = test system: APEC O78-53; format: cell-based, avian pathogenic Escherichia coli (APEC); conditions: APEC O78-53, M63 media; MIC/MBC
# [8] = test system: APEC O8; format: cell-based, avian pathogenic Escherichia coli (APEC); conditions: APEC O8, M63 media; MIC/MBC
# [9] = test system: intracellular APEC O2 in THP-1 cells; experiment: Intracellular survival assay (cidal SMs); conditions: O2, THP-1, 6 h treatment; superscript = multiple of MIC
# [10] = test system: intracellular APEC O1 in THP-1 cells; experiment: Intracellular survival assay (cidal SMs); conditions: O1, THP-1, 6 h treatment; superscript = multiple of MIC
# [11] = test system: APEC O78; experiment: Confocal microscopy bacterial cytological profiling; format: cell-based, avian pathogenic Escherichia coli (APEC); conditions: 2X MBC
# Protocol: Confocal and scanning electron microscopy. Confocal microscopy was used for bacterial cytological profiling (BCP) to identify the cellular pathways targeted by SMs as described previously. […] After incubation, treated cultures were centrifuged, washed, and resuspended in 100 μL PBS. […] Cultures were then centrifuged, washed, and resuspended in PBS to 1⁄10th volume of the original cultures.
# [12] = test system: intracellular APEC O1 in HD11 cells; experiment: Intracellular survival assay (cidal SMs); conditions: O1, HD11, 6 h treatment; superscript = multiple of MIC
# [13] = test system: intracellular APEC O2 in Caco-2 cells; experiment: Intracellular survival assay (cidal SMs); conditions: O2, Caco-2, 6 h treatment; superscript = multiple of MIC
# [14] = test system: APEC O15; format: cell-based, avian pathogenic Escherichia coli (APEC); conditions: APEC O15, M63 media; MIC/MBC
# [15] = test system: intracellular APEC O78 in THP-1 cells; experiment: Intracellular survival assay (cidal SMs); conditions: O78, THP-1, 6 h treatment; superscript = multiple of MIC
# [16] = test system: APEC O2; format: cell-based, avian pathogenic Escherichia coli (APEC); conditions: APEC O2, M63 media; MIC/MBC
# [17] = test system: APEC O1-63; format: cell-based, avian pathogenic Escherichia coli (APEC); conditions: APEC O1-63, M63 media; MIC/MBC
# [18] = test system: APEC O1; format: cell-based, avian pathogenic Escherichia coli (APEC); conditions: APEC O1, M63 media; MIC/MBC
# [19] = test system: APEC O18; format: cell-based, avian pathogenic Escherichia coli (APEC); conditions: APEC O18, M63 media; MIC/MBC
# [20] = test system: biofilm embedded APEC O78; experiment: MBEC High-throughput assay; format: cell-based, avian pathogenic Escherichia coli (APEC); conditions: biofilm embedded APEC O78; superscript = multiple of MIC (footnote)
# Protocol: Effect against biofilm embedded APEC. The effect of cidal SMs against biofilm embedded APEC was determined using MBEC High-throughput (HTP) assay (Innovotech Inc., AB, Canada). Briefly, 150 µL of 0.05 OD600 adjusted APEC O78 culture was aliquoted into each well of the MBEC device containing polystyrene pegs and incubated at 37° C. for 36 h in LB media under stationary condition. […] The plate was incubated in the dark for 18 h at 37° C. with rotation at 110 rpm. The DMSO (1%) and M63 media were used as positive and negative controls, respectively. Following incubation, MIC of SMs in challenged plate was recorded. The SMs exposed pegs were then transferred to a new 96-well plate containing PBS and sonicated for 30 mins (Aquasonic ultrasonic cleaner, VWR) to disrupt the biofilm. […] Biofilm embedded APEC bacteria were enumerated and minimum biofilm eradication concentration (MBEC) of […] were determined. Two independent experiments were conducted.
# [21] = test system: intracellular APEC O1 in Caco-2 cells; experiment: Intracellular survival assay (cidal SMs); conditions: O1, Caco-2, 6 h treatment; superscript = multiple of MIC
# [22] = test system: APEC O78; experiment: Loss of 260/280 nm absorbing materials assay; format: cell-based, avian pathogenic Escherichia coli (APEC); conditions: 2X MBC, 1 h, *P<0.05 vs DMSO
# [23] = test system: APEC O109; format: cell-based, avian pathogenic Escherichia coli (APEC); conditions: APEC O109, M63 media; MIC/MBC
# [24] = test system: APEC O2-211; format: cell-based, avian pathogenic Escherichia coli (APEC); conditions: APEC O2-211, M63 media; MIC/MBC
# [25] = test system: APEC O35; format: cell-based, avian pathogenic Escherichia coli (APEC); conditions: APEC O35, M63 media; MIC/MBC
smiles,measurement,setting,value
CC1CCC(C(C)C)C(OC(=O)Cn2c[n+](CC(=O)OC3CC(C)CCC3C(C)C)c3ccccc32)C1.[Cl-] (centres unmarked) [SM4],effectiveness in clearing intracellular APEC serotypes in all tested cells,[1],most effective
same,MBC,[2],25 µM
same,MIC,[2],25 µM
same,SMs intracellular APEC clearance concentration,[3],50^b µM
same,SMs intracellular APEC clearance concentration,[4],50^b µM
same,SMs intracellular APEC clearance concentration,[5],50^b µM
same,MBC,[6],50 µM
same,MIC,[6],25 µM
same,MBC,[7],50 µM
same,MIC,[7],25 µM
same,MBC,[8],25 µM
same,MIC,[8],25 µM
same,SMs intracellular APEC clearance concentration,[9],100^c µM
same,SMs intracellular APEC clearance concentration,[10],>100 µM
same,"cytological profile (confocal, FM4-64 / SYTO-9)",[11],membrane disruptors
same,SMs intracellular APEC clearance concentration,[12],50^b µM
same,SMs intracellular APEC clearance concentration,[13],100^c µM
same,MBC,[14],25 µM
same,MIC,[14],25 µM
same,SMs intracellular APEC clearance concentration,[15],56^b µM
same,MBC,[16],50 µM
same,MIC,[16],25 µM
same,MBC,[17],50 µM
same,MIC,[17],25 µM
same,MBC,[18],50 µM
same,MIC,[18],25 µM
same,MBC,[19],50 µM
same,MIC,[19],25 µM
same,MBEC,[20],25^a µM
same,SMs intracellular APEC clearance concentration,[21],100^c µM
same,Absorbance 260,[22]; 260 nm absorbing material in supernatant,3.91*
same,Absorbance 280,[22]; 280 nm absorbing material in supernatant,2.69*
same,MBC,[23],25 µM
same,MIC,[23],25 µM
same,MBC,[24],25 µM
same,MIC,[24],25 µM
same,MBC,[25],25 µM
same,MIC,[25],25 µM
